Measured values taken from EP3375430A1, “FRAGRANCE COMPOSITIONS” (Takasago International Corporation, priority 2017, dated 2018).

Assays:
[1] = Headspace concentration of fragrance ingredients over blotter (thermal desorption GC-MS); type: physicochemical; conditions: fragrance TAK;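 for headspace concentration in composition C1 compared to control EdT1: C1 is an invention composition and EdT1 a conventional EdT of fragrance TAK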
Summary of the method: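 Fragrance (100µL) applied to a 10 cm perfumers' blotter held on a 32°C hot plate, equilibrated 5 min; headspace drawn through Tenax TA tubes at 17mL/min until 280mL collected, repeated at later sampling times. Tubes thermally desorbed splitless onto HP-5MS column, GC-MS detection, mass range 35 to 350.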

[2] = Amount of fragrance ingredients retained on paper blotter after evaporation (ethanol extraction, GC-MS); type: physicochemical
Summary of the method: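 100 µL of fragrance formulation applied to paper blotters kept at 32°C open to air; at each time three blotters extracted 1 h in ethanol with methyl decanoate internal standard and analysed by GC-MS (HP-5MS, 50–280°C). Amounts averaged over triplicates and expressed as percent of time-zero level.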

C=CC(C)(CCC=C(C)C)OC(C)=O (stereo not drawn) [Linalyl acetate]
headspace concentration in composition C1 compared to control EdT1 ([1]; T0 + 4h, Figure 3): significantly greater | headspace concentration in composition C14 compared to control EdT1 ([1]; T0+4h and T0+8h, Figures 17 and 18): significantly greater | headspace concentration in composition C15 compared to control EdT1 ([1]; T0+4h and T0+8h, Figures 20 and 21, difference significant for linalool, linalyl acetate and Verdox™): greater | headspace concentration in composition C1 compared to control EdT1 ([1]; T0 + 8h, Figure 4): much greater | headspace concentration in composition C1 compared to control EdT1 ([1]; after 1 hour, Figure 2): greater | amount of fragrance ingredient retained on blotter (percentage of the initial amount) ([2]; Table 3, fragrance TAK in C1, 15 min, 32°C): 79% | amount of fragrance ingredient retained on blotter (percentage of the initial amount) ([2]; Table 3, fragrance TAK in C1, 60 min, 32°C): 62% | amount of fragrance ingredient retained on blotter (percentage of the initial amount) ([2]; Table 3, fragrance TAK in C1, 120 min, 32°C): 39% | amount of fragrance ingredient retained on blotter (percentage of the initial amount) ([2]; Table 3, fragrance TAK in C1, 240 min, 32°C): 19% | amount of fragrance ingredient retained on blotter (percentage of the initial amount) ([2]; Table 3, fragrance TAK in C1, 480 min, 32°C): 7% | amount of fragrance ingredient retained on blotter (percentage of the initial amount) ([2]; Table 3, fragrance TAK in EdT1, 15 min, 32°C): 70% | amount of fragrance ingredient retained on blotter (percentage of the initial amount) ([2]; Table 3, fragrance TAK in EdT1, 60 min, 32°C): 27% | amount of fragrance ingredient retained on blotter (percentage of the initial amount) ([2]; Table 3, fragrance TAK in EdT1, 120 min, 32°C): 6% | amount of fragrance ingredient retained on blotter (percentage of the initial amount) ([2]; Table 3, fragrance TAK in EdT1, 240 min, 32°C): 2% | amount of fragrance ingredient retained on blotter (percentage of the initial amount) ([2]; Table 3, fragrance TAK in EdT1, 480 min, 32°C): <1% | amount of fragrance ingredient retained on blotter (percentage of the initial amount) ([2]; Table 3, fragrance TAK in EdT1 or C1, T0, set at 100% (normalisation)): 100% | amount of fragrance ingredient retained on blotter (percentage of the initial amount) ([2]; Table 4, fragrance TAK in C2, 15 min, 32°C): 92% | amount of fragrance ingredient retained on blotter (percentage of the initial amount) ([2]; Table 4, fragrance TAK in C2, 480 min, 32°C): 9% | amount of fragrance ingredient retained on blotter (percentage of the initial amount) ([2]; Table 4, fragrance TAK in EdT1, 15 min, 32°C): 72% | amount of fragrance ingredient retained on blotter (percentage of the initial amount) ([2]; Table 4, fragrance TAK in EdT1, 480 min, 32°C): 2% | amount of fragrance ingredient retained on blotter (percentage of the initial amount) ([2]; Table 4, fragrance TAK in EdT1 or C2, T0, set at 100% (normalisation)): 100% | amount of fragrance ingredient retained on blotter (percentage of the initial amount) ([2]; Table 5, fragrance TAK in C3, 15 min, 32°C): 83% | amount of fragrance ingredient retained on blotter (percentage of the initial amount) ([2]; Table 5, fragrance TAK in C3, 60 min, 32°C): 62% | amount of fragrance ingredient retained on blotter (percentage of the initial amount) ([2]; Table 5, fragrance TAK in C3, 120 min, 32°C): 41% | amount of fragrance ingredient retained on blotter (percentage of the initial amount) ([2]; Table 5, fragrance TAK in C3, 240 min, 32°C): 24% | amount of fragrance ingredient retained on blotter (percentage of the initial amount) ([2]; Table 5, fragrance TAK in C3, 480 min, 32°C): 8% | amount of fragrance ingredient retained on blotter (percentage of the initial amount) ([2]; Table 5, fragrance TAK in C3, 1440 min, 32°C): 3% | amount of fragrance ingredient retained on blotter (percentage of the initial amount) ([2]; Table 5, fragrance TAK in EdT1, 15 min, 32°C): 70% | amount of fragrance ingredient retained on blotter (percentage of the initial amount) ([2]; Table 5, fragrance TAK in EdT1, 60 min, 32°C): 26% | amount of fragrance ingredient retained on blotter (percentage of the initial amount) ([2]; Table 5, fragrance TAK in EdT1, 120 min, 32°C): 6% | amount of fragrance ingredient retained on blotter (percentage of the initial amount) ([2]; Table 5, fragrance TAK in EdT1, 240 min, 32°C): 2% | amount of fragrance ingredient retained on blotter (percentage of the initial amount) ([2]; Table 5, fragrance TAK in EdT1, 480 min, 32°C): <1% | amount of fragrance ingredient retained on blotter (percentage of the initial amount) ([2]; Table 5, fragrance TAK in EdT1, 1440 min, 32°C): <1% | amount of fragrance ingredient retained on blotter (percentage of the initial amount) ([2]; Table 5, fragrance TAK in EdT1 or C3, T0, set at 100% (normalisation)): 100% | amount of fragrance ingredient retained on blotter (percentage of the initial amount) ([2]; Table 6, fragrance TAK in C4, 15 min, 32°C): 82% | amount of fragrance ingredient retained on blotter (percentage of the initial amount) ([2]; Table 6, fragrance TAK in C4, 60 min, 32°C): 62% | amount of fragrance ingredient retained on blotter (percentage of the initial amount) ([2]; Table 6, fragrance TAK in C4, 120 min, 32°C): 34% | amount of fragrance ingredient retained on blotter (percentage of the initial amount) ([2]; Table 6, fragrance TAK in C4, 240 min, 32°C): 18% | amount of fragrance ingredient retained on blotter (percentage of the initial amount) ([2]; Table 6, fragrance TAK in C4, 480 min, 32°C): 10% | amount of fragrance ingredient retained on blotter (percentage of the initial amount) ([2]; Table 6, fragrance TAK in EdT1, 15 min, 32°C): 70% | amount of fragrance ingredient retained on blotter (percentage of the initial amount) ([2]; Table 6, fragrance TAK in EdT1, 60 min, 32°C): 27% | amount of fragrance ingredient retained on blotter (percentage of the initial amount) ([2]; Table 6, fragrance TAK in EdT1, 120 min, 32°C): 6% | amount of fragrance ingredient retained on blotter (percentage of the initial amount) ([2]; Table 6, fragrance TAK in EdT1, 240 min, 32°C): 2% | amount of fragrance ingredient retained on blotter (percentage of the initial amount) ([2]; Table 6, fragrance TAK in EdT1, 480 min, 32°C): <1% | amount of fragrance ingredient retained on blotter (percentage of the initial amount) ([2]; Table 6, fragrance TAK in EdT1 or C4, T0, set at 100% (normalisation)): 100%
